According to a melting point compilation (Tetko et al.):

melting point | Compound
252 to 254 °C | Fc1ccc(-c2cnc(S)o2)cc1
126 to 128 °C | Cc1ccc(-n2cccc2)c(C(=O)O)c1
191 to 193 °C | CC(C)Oc1ccc(-c2csc(N)n2)cc1
145 to 147 °C | Cc1cccc(C(N)=O)c1N
299 to 301 °C | O=C(CCCl)Nc1ccc2[nH]c(=O)[nH]c2c1
91 to 93 °C | N#Cc1ccc(F)c(Cn2ccnc2)c1
83 to 85 °C | Cc1nnc(CO)s1
188 to 190 °C | O=c1[nH]nc(Br)c(=O)[nH]1
138 to 140 °C | Cc1cccc(C)c1OCC(=O)O
142 to 144 °C | OCc1cn(-c2ccc(Cl)cc2)nn1
80 to 82 °C | CCOC(=O)C1CCCNC1=O (stereo not drawn)
164 to 166 °C | Cc1cc(C)cc(-n2nnnc2S)c1
125 to 127 °C | O=S(=O)(Cl)c1cccc(-n2cnnn2)c1
209 to 211 °C | O=C(O)c1coc(-c2ccccc2)n1
85 to 87 °C | CC(=O)NC=C(Cl)Cl
114 to 116 °C | O=[N+]([O-])c1ccc(NC2CCCC2)nc1
299 to 301 °C | Nc1ncc(C(=O)O)cc1Br
230 to 232 °C | COc1cc(OC)c2c(-c3ccccc3)cc(S)nc2c1
191 to 193 °C | CC(C)c1ccc(S(=O)(=O)c2ccc(NN)cc2)cc1
66 to 68 °C | NC(=NO)c1cccc(Oc2ccccc2)c1
53 to 55 °C | O=C(c1cccc([N+](=O)[O-])c1)C(F)(F)F
50 to 52 °C | Oc1ccc(OC2CCCC2)cc1
231 to 233 °C | Cc1nnc(NC(=O)OCC(F)(F)F)s1
54 to 56 °C | Cn1cnc(S(=O)(=O)Cl)c1Cl
208 to 210 °C | O=Cc1c[nH]nc1-c1cccnc1

melting point | Compound
76 to 78 °C | CCCC1CCC(=O)NC1=O (stereo not drawn)
154 to 156 °C | CN(c1ccc(O)cc1)S(=O)(=O)c1ccc(Cl)cc1
34 to 36 °C | OC[C@@H](O)CNCCC(F)(F)F
140 to 142 °C | NNc1ccc(S(=O)(=O)NC2CCCCCCC2)cn1
200 to 202 °C | Cn1c(CCC(=O)O)nc(=O)c2ccccc21
139 to 141 °C | O=Cc1c[nH]nc1-c1cccc(Cl)c1
101 to 103 °C | CCOC(=O)C(C#N)=Cc1ccncc1
62 to 64 °C | CCOC(=O)CS(N)(=O)=O
315 to 317 °C | O=C(O)c1ccc2c(c1)[nH]c(=O)n2C1CCCC1
47 to 49 °C | COCCc1ccc(OCCCC(=O)O)cc1
229 to 231 °C | CCc1[nH]ncc1C(=O)O
156 to 158 °C | Cc1ccnc(-n2cc(S(N)(=O)=O)cn2)c1
129 to 131 °C | CC1C(=O)NCCN1C(=O)c1cccs1 (stereo not drawn)
99 to 101 °C | CCOC(=O)c1nn(-c2ccccc2)cc1C=O
122 to 124 °C | CCNC(=O)c1cc(Cl)ccc1N
103 to 105 °C | Cc1cc(NC(=O)OC(C)(C)C)ccc1N
142 to 144 °C | N#CCCn1cnc2ccccc2c1=O
269 to 271 °C | Cc1ccc2ncc(C(=O)O)c(O)c2c1
144 to 146 °C | CC(Cl)C(=O)Nc1c(Cl)cccc1Cl (stereo not drawn)
203 to 205 °C | O=C(O)c1ccc(CN(Cc2ccccc2)S(=O)(=O)c2ccc(Cl)cc2)cc1
174 to 176 °C | CCOc1cc(-c2ccccc2)sc1C(=O)O
168 to 170 °C | CC(C)NS(=O)(=O)c1cc(C(=O)O)ccc1F
279 to 281 °C | c1cc(-c2nc3cc4c(cc3[nH]2)OCCO4)cs1
107 to 109 °C | Nc1ccc(CC(=O)N2CCCC2)cc1
54 to 56 °C | CC(C)(C#N)C(=O)O

melting point | Compound
180 to 182 °C | CCCC(=O)Nc1c(Cl)cc(Cl)cc1C(=O)O
89 to 91 °C | O=C(O)CCCCCCNC(=O)OCc1ccccc1
149 to 151 °C | CN(C)S(=O)(=O)c1cccc(C(=O)NN)c1
189 to 191 °C | O=C(NC(c1nn[nH]n1)C1CC1)c1ccccc1 (stereo not drawn)
73 to 75 °C | Cc1cc([N+](=O)[O-])cc(S(=O)(=O)Cl)c1F
156 to 158 °C | CC(O)C(NC(=O)C(C)(C)C)C(=O)O (stereo not drawn)
261 to 263 °C | Cc1cc(F)cc2[nH]c(C(=O)O)cc12
102 to 104 °C | O=C(O)Cc1ccc2c(c1)CCO2
139 to 141 °C | O=C(O)C1CCCN1c1ncccn1 (stereo not drawn)
134 to 136 °C | c1n[nH]c2c1CCNC2
88 to 90 °C | N#CCCCOc1cccnc1N
268 to 270 °C | CN(C)S(=O)(=O)c1ccc(/C=C/C(=O)O)cc1
289 to 291 °C | Cc1nnc2[nH]cc(C(=O)NN)cc1-2
60 to 62 °C | Nc1ccc(Sc2ccc(Cl)cc2)cc1
150 to 152 °C | NNC(=O)C1Cc2ccccc2O1 (stereo not drawn)
126 to 128 °C | Cc1nc(N)sc1Cc1ccccc1Cl
124 to 126 °C | Cc1cc(C)n(-c2ccc(N)cc2F)n1
126 to 128 °C | N#CC1(NC(=O)c2ccccc2)CCC1
204 to 206 °C | O=C(O)CN1C(=O)c2ccc(Br)cc2C1=O
242 to 244 °C | COc1cc(C(=O)O)n(-c2ncccc2Cl)n1
169 to 171 °C | CCOC(=O)Cc1nc2cc(C)c(C)cc2[nH]1
108 to 110 °C | N#CCc1ccc(OCc2ccccc2N)cc1
202 to 204 °C | CC(C(=O)Nc1ccc(N)cc1)n1cncn1 (stereo not drawn)
169 to 171 °C | CC(C)NC(=O)Nc1ccccc1[N+](=O)[O-]
145 to 147 °C | CCOC(=O)c1c(N)sc2c1CCN(C(=O)OCC)C2

melting point | Compound
123 to 125 °C | OCc1nc(-c2ccco2)no1
75 to 77 °C | c1ccc(-c2csc(N3CCOCC3)n2)cc1
77 to 79 °C | O=C(CC(=O)NCC1CCCO1)NCC1CCCO1 (stereo not drawn)
240 to 242 °C | Cc1cc(=O)c(C(=O)O)nn1-c1ccccc1[N+](=O)[O-]
294 to 296 °C | NC(=O)c1nnc(O)nc1O
170 to 172 °C | CC1(c2ccccn2)NC(=O)NC1=O (stereo not drawn)
129 to 131 °C | COCCS(=O)(=O)c1ccc(Cl)c(C(=O)O)c1Cl
48 to 50 °C | CS(=O)(=O)c1cccc(C(N)c2ccccc2)c1 (stereo not drawn)
327 to 329 °C | N#Cc1c(-c2ccccc2)nc(S)[nH]c1=O
102 to 103 °C | O=C(O)c1ccc(SCc2cn3ccccc3n2)cc1
72 to 73 °C | Cc1n[nH]c(C)c1S(=O)(=O)N1CCCCC1
99 to 101 °C | O=C(O)C1(O)CCSC1 (stereo not drawn)
110 to 114 °C | CCS(=O)(=O)N1Cc2ccccc2CC1C(=O)O (stereo not drawn)
179 to 181 °C | CS(=O)(=O)c1ccsc1C(=O)O
124 to 126 °C | COC(=O)CNS(=O)(=O)c1ccc(Cl)nc1
95 to 97 °C | O=Cc1coc2ccc(F)cc2c1=O
181 to 183 °C | O=C(O)CCn1cnc2ccccc2c1=O
70 to 72 °C | COc1cc(C)c(C=O)cc1OC
39 to 41 °C | CCOc1ccc(C(=O)CC)cc1OCC
75 to 77 °C | O=C(CCCl)Nc1cccc([N+](=O)[O-])c1
159 to 161 °C | Cc1nc(C(N)=O)c(N)n1C
77 to 79 °C | CC(CCNC(N)=O)c1ccccc1 (stereo not drawn)
184 to 186 °C | Brc1cnc2ncnn2c1
145 to 148 °C | NS(=O)(=O)c1ccc(CCNC(=O)CCl)cc1

Compound | melting point
OCC(c1ccc(Cl)cc1)N1CCNCC1 (stereo not drawn) | 116 to 118 °C
CC(=O)CCc1ccc2c(c1)OCO2 | 50 to 52 °C
Clc1cc(N2CCNCC2)ncn1 | 100 to 102 °C
COc1ccc(F)cc1CCl | 52 to 53 °C
